For assay [1], the target named is T1, SFRP-1 (Homo sapiens, UniProt Q8N474).
T1 sequence (Q8N474 32-314): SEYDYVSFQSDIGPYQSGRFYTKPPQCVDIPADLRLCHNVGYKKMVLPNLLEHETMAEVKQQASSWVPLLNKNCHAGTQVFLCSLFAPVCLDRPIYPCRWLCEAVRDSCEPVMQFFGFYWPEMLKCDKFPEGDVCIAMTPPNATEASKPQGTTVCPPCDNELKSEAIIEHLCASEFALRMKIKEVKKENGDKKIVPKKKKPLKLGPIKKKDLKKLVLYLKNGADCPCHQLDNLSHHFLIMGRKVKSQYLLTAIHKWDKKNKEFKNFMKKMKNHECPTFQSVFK
Nature of the assay: Cell-based assay for in vitro measurement of SFRP-1/SARP2 antagonist activity (U2OS cells co-transfected with 16x TCF-tk-Luciferase reporter, Wnt and hSFRP-1).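 As to all read-outs here: U2OS cells co-transfected with a TCF-tk luciferase reporter, a Wnt vector, hSFRP-1 or empty vector and CMV-βgal, luciferase luminescence read in cell lysates alongside βgal activity.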 As to conditions: for fold induction at 15 µM / fold induction at 10 µM: U2OS; for fold induction at 15 µM: single dose, luciferase reporter; for fold induction at 10 µM: read-out: Fold Induction with SFRP-1, U2OS cells, single dose 10 μM, luciferase reporter, fold induction over SFRP-1 control.

Assay [2] addresses T1, SFRP-1. Nature of the assay: Fluorescence polarization binding assay (competitive displacement of a probe compound from SFRP-1).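 Also: test compound competes with a fluorescent probe held by SFRP-1, seen as a drop in probe anisotropy after incubation in darkness, with anisotropy as function of rising compound dose.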 As to conditions: fluorescence anisotropy, 45 nM SFRP-1, 20 nM probe.
Where [3] appears, read: read-out: Fold Induction with SFRP-1, Conc 15 μM, fold induction over SFRP-1 control, cells with SFRP-1.
Setting [4] is: read-out: Fold Induction without SFRP-1, Conc 15 μM, cells without SFRP-1 (specificity control).

Experimental findings from patent US20060276464A1, “Diarylsulfone sulfonamides and use thereof” (Wyeth, priority 2005, published 2006) are described below.

The structures appear in SMILES notation. Several values for one entry are separate records, joined by “and”; a condition that tells them apart may be missing. Identical values can stand only once. Like-named read-outs stand apart in the source and are kept apart here.

In the case of `CC(C)c1ccc(S(=O)(=O)c2ccc(N3CCNCC3)cc2)cc1S(=O)(=O)NC1CCOCC1` [Example 628, 2-isopropyl-5-[(4-piperazin-1-ylphenyl)sulfonyl]-N-(tetrahydro-2H-pyran-4-yl)benzenesulfonamide], the fold induction at 15 µM amounted to 3.2 in assay [1] (setting [3]) and 1.1 in assay [1] (setting [4]). This compound yielded an IC50 in assay [2] of 3000 nM.

As to `O=S(=O)(NCCc1cccnc1)c1cc(S(=O)(=O)c2ccccc2)ccc1Cl` [Example 640, 2-chloro-5-(phenylsulfonyl)-N-(2-pyridin-3-ylethyl)benzenesulfonamide], the fold induction at 15 µM in assay [1] (setting [3]) was 3.5; in assay [1] (setting [4]), 1.2. Further, the 50% inhibitory concentration (IC50) in assay [2] amounted to 1200 nM.

For `O=S(=O)(NCCc1ccncc1)c1cc(S(=O)(=O)c2ccccc2)ccc1Cl` [Example 641, 2-chloro-5-(phenylsulfonyl)-N-(2-pyridin-4-ylethyl)benzenesulfonamide], the fold induction at 15 µM in assay [1] (setting [3]) was 3; in assay [1] (setting [4]) it was 1. In addition, the IC50 in assay [2] worked out at 1100 nM.

Regarding `N#CCCNS(=O)(=O)c1cc(S(=O)(=O)c2ccccc2)ccc1Cl` [Example 643, 2-chloro-N-(2-cyanoethyl)-5-(phenylsulfonyl)benzenesulfonamide], the fold induction at 15 µM in assay [1] (setting [3]) is 3.2; in assay [1] (setting [4]) it was 1. For the same compound, in assay [2], the concentration for half-maximal inhibition (IC50) was 2400 nM.

As to `O=C(N1CCC(NS(=O)(=O)c2cc(S(=O)(=O)c3ccccc3)ccc2Cl)CC1)C(F)(F)F` [Example 647, 2-chloro-5-(phenylsulfonyl)-N-[1-(trifluoroacetyl)piperidin-4-yl]benzenesulfonamide], the fold induction at 15 µM in assay [1] (setting [3]) came out at 3.9; in assay [1] (setting [4]), 1.1. The same compound had a concentration for half-maximal inhibition (IC50) in assay [2] of 1400 nM.

Consider `CC(C)(C)C(=O)N1CCC(NS(=O)(=O)c2cc(S(=O)(=O)c3ccccc3)ccc2Cl)CC1` [Example 648, 2-chloro-N-[1-(2,2-dimethylpropanoyl)piperidin-4-yl]-5-(phenylsulfonyl)benzenesulfonamide], for which the fold induction at 15 µM in assay [1] (setting [3]) was 2.9; in assay [1] (setting [4]) it was 1.1. In addition, the IC50 in assay [2] came out at 5000 nM.

`CC(C)(C)NC(=O)N1CCC(NS(=O)(=O)c2cc(S(=O)(=O)c3ccccc3)ccc2Cl)CC1` [Example 649, N-(tert-butyl)-4-({[2-chloro-5-(phenylsulfonyl)phenyl]sulfonyl}amino)piperidine-1-carboxamide]: the fold induction at 15 µM in assay [1] (setting [3]) came out at 3; in assay [1] (setting [4]) it was 1.1. The compound also showed an IC50 in assay [2] of 1600 nM.

For the compound `O=C(N1CCOCC1)N1CCC(NS(=O)(=O)c2cc(S(=O)(=O)c3ccccc3)ccc2Cl)CC1` [Example 650, 2-chloro-N-[1-(morpholin-4-ylcarbonyl)piperidin-4-yl]-5-(phenylsulfonyl)benzenesulfonamide], the values for the fold induction at 15 µM in assay [1] (setting [3]) and in assay [1] (setting [4]) were 3.4 and 1.1, respectively. This compound also gave an IC50 in assay [2] of 10000 nM.

On to `N#CN1CCC(NS(=O)(=O)c2cc(S(=O)(=O)c3ccccc3)ccc2Cl)CC1` [Example 651, 2-chloro-N-(1-cyanopiperidin-4-yl)-5-(phenylsulfonyl)benzenesulfonamide], for which the fold induction at 15 µM was determined as 2.9 in assay [1] (setting [3]) and 0.9 in assay [1] (setting [4]). The compound further came in with an IC50 in assay [2] of 400 nM.

Regarding `CC(C)c1ccc(S(=O)(=O)c2ccc(F)cc2)cc1S(=O)(=O)NCCc1ccc[n+]([O-])c1` [Example 652, 5-[(4-fluorophenyl)sulfonyl]-2-isopropyl-N-[2-(1-oxidopyridin-3-yl)ethyl]benzenesulfonamide], the fold induction at 15 µM in assay [1] (setting [3]) came to 3.8; in assay [1] (setting [4]) it was 1. Moreover, the concentration for half-maximal inhibition (IC50) in assay [2] was 800 nM and 700 nM.

`O=C(c1ccc(F)cc1)N1CCC(NS(=O)(=O)c2cc(S(=O)(=O)c3ccccc3)ccc2Cl)CC1` [Example 656, 2-chloro-N-[1-(4-fluorobenzoyl)piperidin-4-yl]-5-(phenylsulfonyl)benzenesulfonamide]: in assay [1], the concentration giving a half-maximal response (EC50) turned out to be 11700 nM and the fold induction at 10 µM worked out at 2.2. The IC50 in assay [2] stood at 2800 nM.

Consider `N#Cc1ccc(C(=O)N2CCC(NS(=O)(=O)c3cc(S(=O)(=O)c4ccccc4)ccc3Cl)CC2)cc1` [Example 657, 2-chloro-N-[1-(4-cyanobenzoyl)piperidin-4-yl]-5-(phenylsulfonyl)benzenesulfonamide], for which, in assay [1], the midpoint of the response, the EC50, lay at 9030 nM and the fold induction at 10 µM came out at 2.4. The compound also gave an IC50 in assay [2] of 2400 nM.

For `O=C(c1ccc(C(F)(F)F)cc1)N1CCC(NS(=O)(=O)c2cc(S(=O)(=O)c3ccccc3)ccc2Cl)CC1` [Example 658, 2-chloro-5-(phenylsulfonyl)-N-{1-[4-(trifluoromethyl)benzoyl]piperidin-4-yl}benzenesulfonamide], in assay [1], the response was half-maximal at 6350 nM (EC50) and the fold induction at 10 µM came out at 2.6. Further, the IC50 in assay [2] was determined as 800 nM.

`O=S(=O)(NCCc1cccnc1)c1cc(S(=O)(=O)c2ccccc2)ccc1OC(F)(F)F` [Example 660, 5-(phenylsulfonyl)-N-(2-pyridin-3-ylethyl)-2-(trifluoromethoxy)benzenesulfonamide]: in assay [1], the EC50 was found to be 3720 nM and the fold induction at 10 µM was determined as 4.9. The compound also registered a half-inhibitory concentration (IC50) in assay [2] of 2400 nM.

As to `O=S(=O)(NC1CCOCC1)c1cc(S(=O)(=O)c2ccccc2)ccc1OC(F)(F)F` [Example 662, 5-(phenylsulfonyl)-N-(tetrahydro-2H-pyran-4-yl)-2-(trifluoromethoxy)benzenesulfonamide], in assay [1], the EC50 worked out at 17600 nM and the fold induction at 10 µM was found to be 3.3. The compound further registered a concentration for half-maximal inhibition (IC50) in assay [2] of 4000 nM.

For the compound `CC(C)c1ccc(S(=O)(=O)c2ccc(F)cc2)cc1S(=O)(=O)NCCC#N` [Example 664, N-(2-cyanoethyl)-5-[(4-fluorophenyl)sulfonyl]-2-isopropylbenzenesulfonamide], in assay [1], the midpoint of the response, the EC50, lay at 2990 nM and the fold induction at 10 µM is 3.9. In assay [2], this compound yielded a half-inhibitory concentration (IC50) of 1700 nM.

Consider `CC(C)c1ccc(S(=O)(=O)c2ccccc2)cc1S(=O)(=O)NC1CCOCC1` [Example 670, 2-isopropyl-5-(phenylsulfonyl)-N-(tetrahydro-2H-pyran-4-yl)benzenesulfonamide], for which, in assay [1], the EC50 was found to be 2830 nM and the fold induction at 10 µM amounted to 3.2. In assay [2], the half-maximal inhibitory concentration (IC50) stood at 800 nM.

Regarding `CC(C)c1ccc(S(=O)(=O)c2ccccc2)cc1S(=O)(=O)NCCc1ccccn1` [Example 671, 2-isopropyl-5-(phenylsulfonyl)-N-(2-pyridin-2-ylethyl)benzenesulfonamide], in assay [1], the midpoint of the response, the EC50, lay at 1580 nM and the fold induction at 10 µM stood at 3.6. In assay [2], this compound gave an IC50 of 400 nM.

Take `CC(C)c1ccc(S(=O)(=O)c2ccccc2)cc1S(=O)(=O)NCCc1cccnc1` [Example 672, 2-isopropyl-5-(phenylsulfonyl)-N-(2-pyridin-3-ylethyl)benzenesulfonamide]: in assay [1], the 50% effective concentration (EC50) turned out to be 3120 nM and the fold induction at 10 µM was 4.2. The IC50 in assay [2] was found to be 300 nM.

With `O=S(=O)(NCCc1cccnc1)c1cc(S(=O)(=O)c2ccccc2)ccc1C(F)(F)F` [Example 677, 5-(phenylsulfonyl)-N-(2-pyridin-3-ylethyl)-2-(trifluoromethyl)benzenesulfonamide], in assay [1], it took 489 nM to reach a half-maximal effect (EC50) and the fold induction at 10 µM came out at 3.8. The same compound returned an IC50 in assay [2] of 160 nM.

Take `N#CCCNS(=O)(=O)c1cc(S(=O)(=O)c2ccccc2)ccc1C(F)(F)F` [Example 679, N-(2-cyanoethyl)-5-(phenylsulfonyl)-2-(trifluoromethyl)benzenesulfonamide]: in assay [1], the EC50 stood at 449 nM and the fold induction at 10 µM is 3.4. This compound also came in with an IC50 in assay [2] of 250 nM.

`O=S(=O)(NCCO)c1cc(S(=O)(=O)c2ccccc2)ccc1C(F)(F)F` [Example 681, N-(2-hydroxyethyl)-5-(phenylsulfonyl)-2-(trifluoromethyl)benzenesulfonamide]: in assay [1], the EC50 was found to be 4300 nM and the fold induction at 10 µM came out at 3.4. In assay [2], this compound came in with an IC50 of 1100 nM.

On to `O=S(=O)(NCC(O)c1ccccc1)c1cc(S(=O)(=O)c2ccccc2)ccc1C(F)(F)F` (stereo not drawn) [Example 682, N-(2-hydroxy-2-phenylethyl)-5-(phenylsulfonyl)-2-(trifluoromethyl)benzenesulfonamide], for which, in assay [1], the EC50 was determined as 765 nM and the fold induction at 10 µM was found to be 1.2. This compound yielded a 50% inhibitory concentration (IC50) in assay [2] of 250 nM.

On to `CC(CO)NS(=O)(=O)c1cc(S(=O)(=O)c2ccccc2)ccc1C(F)(F)F` (stereo not drawn) [Example 683, N-(2-hydroxy-1-methylethyl)-5-(phenylsulfonyl)-2-(trifluoromethyl)benzenesulfonamide], for which, in assay [1], the 50% effective concentration (EC50) was determined as 3100 nM and the fold induction at 10 µM was 3.7. For the same compound, in assay [2], the 50% inhibitory concentration (IC50) came to 1200 nM.

Consider `C[C@@H](NS(=O)(=O)c1cc(S(=O)(=O)c2ccccc2)ccc1C(F)(F)F)[C@@H](O)c1ccccc1` [Example 686, N-[(1R,2S)-2-hydroxy-1-methyl-2-phenylethyl]-5-(phenylsulfonyl)-2-(trifluoromethyl)benzenesulfonamide], for which, in assay [1], the EC50 stood at 1750 nM and the fold induction at 10 µM is 3.5. Moreover, the IC50 in assay [2] came to 500 nM.

Consider `CC(C)(C)OC(=O)N1CCC(NS(=O)(=O)c2cc(S(=O)(=O)c3ccccc3)ccc2C(F)(F)F)CC1` [Example 687, tert-butyl 4-({[5-(phenylsulfonyl)-2-(trifluoromethyl)phenyl]sulfonyl}amino)piperidine-1-carboxylate], for which, in assay [1], the 50% effective concentration (EC50) turned out to be 261 nM and the fold induction at 10 µM came to 3.2. In assay [2], this compound returned an IC50 of 500 nM.
